# Measurements as given in PubChem BioAssay (NCI).
#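 Tested at 5 concentrations; 48 h exposure; 96-well plates; endpoints linearly interpolated, else capped at highest concentration. GI50 marks 50% less growth. TGI is the concentration that stops growth completely.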
# What was measured:
# Test in all cases: growth of human tumour cells (NCI), 48 h
# OVCAR-3 ovarian = tested on: OVCAR-3 ovarian
# UACC-257 melanoma = tested on: UACC-257 melanoma
# MDA-MB-435 = tested on: MDA-MB-435
# SNB-19 CNS = tested on: SNB-19 CNS
# KM12 colon = tested on: KM12 colon
# MALME-3M melanoma = tested on: MALME-3M melanoma
# SW-620 colon = tested on: SW-620 colon
# 786-0 renal = tested on: 786-0 renal
# HCT-116 colon = tested on: HCT-116 colon
# HL-60(TB) leukemia = tested on: HL-60(TB) leukemia
# SF-539 CNS = tested on: SF-539 CNS
# SK-OV-3 ovarian = tested on: SK-OV-3 ovarian
# SK-MEL-5 melanoma = tested on: SK-MEL-5 melanoma
# HCC-2998 colon = tested on: HCC-2998 colon
# NCI-H23 lung = tested on: NCI-H23 lung
# M14 melanoma = tested on: M14 melanoma
# HS 578T breast = tested on: HS 578T breast
# OVCAR-4 ovarian = tested on: OVCAR-4 ovarian
# SN12C renal = tested on: SN12C renal
# MDA-MB-231 breast = tested on: MDA-MB-231 breast
# SK-MEL-2 melanoma = tested on: SK-MEL-2 melanoma
# TK-10 renal = tested on: TK-10 renal
# NCI/ADR-RES ovarian = tested on: NCI/ADR-RES ovarian
# OVCAR-5 ovarian = tested on: OVCAR-5 ovarian
# EKVX NSCLC = tested on: EKVX NSCLC
# A498 renal = tested on: A498 renal
# SK-MEL-28 melanoma = tested on: SK-MEL-28 melanoma
# SF-295 CNS = tested on: SF-295 CNS
# A549 NSCLC = tested on: A549 NSCLC
# HCT-15 colon = tested on: HCT-15 colon
# CCRF-CEM leukemia = tested on: CCRF-CEM leukemia
# HOP-62 NSCLC = tested on: HOP-62 NSCLC
# SNB-75 CNS = tested on: SNB-75 CNS
# COLO 205 colon = tested on: COLO 205 colon
# CAKI-1 renal = tested on: CAKI-1 renal
# HOP-92 NSCLC = tested on: HOP-92 NSCLC
# LOX IMVI melanoma = tested on: LOX IMVI melanoma
# SR leukemia = tested on: SR leukemia
# MOLT-4 leukemia = tested on: MOLT-4 leukemia
# NCI-H226 lung = tested on: NCI-H226 lung
# UO-31 renal = tested on: UO-31 renal
# OVCAR-8 ovarian = tested on: OVCAR-8 ovarian
# MCF7 breast = tested on: MCF7 breast
# RPMI-8226 leukemia = tested on: RPMI-8226 leukemia
# NCI-H522 lung = tested on: NCI-H522 lung
# SF-268 CNS = tested on: SF-268 CNS
# K-562 leukemia = tested on: K-562 leukemia
# HT29 colon = tested on: HT29 colon
# U251 CNS = tested on: U251 CNS
# T-47D breast = tested on: T-47D breast
# PC-3 prostate = tested on: PC-3 prostate
# DU-145 prostate = tested on: DU-145 prostate
# IGROV1 ovarian = tested on: IGROV1 ovarian
# RXF 393 renal = tested on: RXF 393 renal
# UACC-62 melanoma = tested on: UACC-62 melanoma
# NCI-H460 lung = tested on: NCI-H460 lung
# ACHN renal = tested on: ACHN renal
structure (smiles),measurement,setting,value
O=C1NCN(c2ccccc2)C12CCN(CCCSc1ccc(F)cc1)CC2,TGI,OVCAR-3 ovarian,> 100 µM
same,TGI,UACC-257 melanoma,8.21 µM
same,TGI,MDA-MB-435,32.6 µM
same,TGI,SNB-19 CNS,> 100 µM
same,TGI,KM12 colon,65.4 µM
same,TGI,MALME-3M melanoma,52.7 µM
same,TGI,SW-620 colon,> 100 µM
same,TGI,786-0 renal,> 100 µM
same,TGI,HCT-116 colon,28.5 µM
same,TGI,HL-60(TB) leukemia,> 63.6 µM
same,TGI,SF-539 CNS,58.5 µM
same,TGI,SK-OV-3 ovarian,> 100 µM
same,TGI,SK-MEL-5 melanoma,17.9 µM
same,TGI,HCC-2998 colon,67.2 µM
same,TGI,NCI-H23 lung,97.3 µM
same,TGI,M14 melanoma,21.7 µM
same,TGI,HS 578T breast,> 100 µM
same,TGI,OVCAR-4 ovarian,> 96.6 µM
same,TGI,SN12C renal,> 100 µM
same,TGI,MDA-MB-231 breast,25.2 µM
same,TGI,SK-MEL-2 melanoma,43.3 µM
same,TGI,TK-10 renal,99.1 µM
same,TGI,NCI/ADR-RES ovarian,> 100 µM
same,TGI,OVCAR-5 ovarian,> 100 µM
same,TGI,EKVX NSCLC,> 100 µM
same,TGI,A498 renal,42.9 µM
same,TGI,SK-MEL-28 melanoma,> 100 µM
same,TGI,SF-295 CNS,> 100 µM
same,TGI,A549 NSCLC,> 100 µM
same,TGI,HCT-15 colon,> 100 µM
same,TGI,CCRF-CEM leukemia,> 71.4 µM
same,TGI,HOP-62 NSCLC,97 µM
same,TGI,SNB-75 CNS,> 86.1 µM
same,TGI,COLO 205 colon,3.24 µM
same,TGI,CAKI-1 renal,> 91.9 µM
same,TGI,HOP-92 NSCLC,41.6 µM
same,TGI,LOX IMVI melanoma,37.1 µM
same,TGI,SR leukemia,> 81.7 µM
same,TGI,MOLT-4 leukemia,> 100 µM
same,TGI,NCI-H226 lung,> 88 µM
same,TGI,UO-31 renal,> 100 µM
same,TGI,OVCAR-8 ovarian,> 100 µM
same,TGI,MCF7 breast,> 39.9 µM
same,TGI,RPMI-8226 leukemia,> 100 µM
same,TGI,NCI-H522 lung,> 100 µM
same,TGI,SF-268 CNS,> 100 µM
same,TGI,K-562 leukemia,> 79.2 µM
same,TGI,HT29 colon,19.4 µM
same,TGI,U251 CNS,> 100 µM
same,TGI,T-47D breast,> 100 µM
same,TGI,PC-3 prostate,> 100 µM
same,TGI,DU-145 prostate,> 100 µM
same,TGI,IGROV1 ovarian,51.3 µM
same,TGI,RXF 393 renal,> 100 µM
same,TGI,UACC-62 melanoma,> 69 µM
same,TGI,NCI-H460 lung,> 100 µM
same,TGI,ACHN renal,> 80.5 µM
N=c1c2c(=O)n3c(nc2nc2sc4ccc(Cl)cc4n12)-c1ccccc1Sc1ccccc1-3,GI50,OVCAR-3 ovarian,1.89 µM
same,TGI,OVCAR-3 ovarian,8.27 µM
same,GI50,UACC-257 melanoma,3.14 µM
same,TGI,UACC-257 melanoma,9.39 µM
same,GI50,MDA-MB-435,2.67 µM
same,TGI,MDA-MB-435,13.1 µM
same,GI50,SNB-19 CNS,4.31 µM
same,TGI,SNB-19 CNS,20.4 µM
same,GI50,KM12 colon,2.9 µM
same,TGI,KM12 colon,12.4 µM
same,GI50,MALME-3M melanoma,2.15 µM
same,TGI,MALME-3M melanoma,9.21 µM
same,GI50,SW-620 colon,3.05 µM
same,TGI,SW-620 colon,16.1 µM
same,GI50,786-0 renal,2.55 µM
same,TGI,786-0 renal,6.84 µM
same,GI50,HCT-116 colon,2.34 µM
same,TGI,HCT-116 colon,10.3 µM
same,GI50,HL-60(TB) leukemia,2.21 µM
same,TGI,HL-60(TB) leukemia,6.63 µM
same,GI50,SF-539 CNS,3.34 µM
same,TGI,SF-539 CNS,18.4 µM
same,GI50,SK-OV-3 ovarian,3.7 µM
same,TGI,SK-OV-3 ovarian,25.2 µM
same,GI50,SK-MEL-5 melanoma,1.42 µM
same,TGI,SK-MEL-5 melanoma,3.86 µM
same,GI50,HCC-2998 colon,3.12 µM
same,TGI,HCC-2998 colon,12.8 µM
same,GI50,NCI-H23 lung,1.9 µM
same,TGI,NCI-H23 lung,7.49 µM
same,GI50,M14 melanoma,2.99 µM
same,TGI,M14 melanoma,10.6 µM
same,GI50,HS 578T breast,2.2 µM
same,TGI,HS 578T breast,10.1 µM
same,GI50,OVCAR-4 ovarian,3.5 µM
same,TGI,OVCAR-4 ovarian,19.6 µM
same,GI50,SN12C renal,2.94 µM
same,TGI,SN12C renal,14 µM
same,GI50,MDA-MB-231 breast,2.56 µM
same,TGI,MDA-MB-231 breast,16.2 µM
same,GI50,SK-MEL-2 melanoma,2.07 µM
same,TGI,SK-MEL-2 melanoma,5.99 µM
same,GI50,TK-10 renal,4.3 µM
same,TGI,TK-10 renal,47.1 µM
same,GI50,NCI/ADR-RES ovarian,2.05 µM
same,TGI,NCI/ADR-RES ovarian,7.5 µM
same,GI50,OVCAR-5 ovarian,4.62 µM
same,TGI,OVCAR-5 ovarian,24 µM
same,GI50,EKVX NSCLC,1.42 µM
same,TGI,EKVX NSCLC,8.97 µM
same,GI50,A498 renal,0.371 µM
same,TGI,A498 renal,3.6 µM
same,GI50,SK-MEL-28 melanoma,3.91 µM
same,TGI,SK-MEL-28 melanoma,16.4 µM
same,GI50,SF-295 CNS,1.41 µM
same,TGI,SF-295 CNS,5.79 µM
same,GI50,A549 NSCLC,1.98 µM
same,TGI,A549 NSCLC,12.5 µM
same,GI50,HCT-15 colon,2.96 µM
same,TGI,HCT-15 colon,14.5 µM
same,GI50,CCRF-CEM leukemia,2.32 µM
same,TGI,CCRF-CEM leukemia,> 100 µM
same,GI50,HOP-62 NSCLC,3.64 µM
same,TGI,HOP-62 NSCLC,28.3 µM
same,GI50,SNB-75 CNS,2.45 µM
same,TGI,SNB-75 CNS,9.66 µM
same,GI50,COLO 205 colon,2.24 µM
same,TGI,COLO 205 colon,5.24 µM
same,GI50,CAKI-1 renal,2.36 µM
same,TGI,CAKI-1 renal,12.9 µM
same,GI50,HOP-92 NSCLC,0.762 µM
same,TGI,HOP-92 NSCLC,6.08 µM
same,GI50,LOX IMVI melanoma,2.69 µM
same,TGI,LOX IMVI melanoma,20.2 µM
same,GI50,SR leukemia,2.15 µM
same,TGI,SR leukemia,9.14 µM
same,GI50,MOLT-4 leukemia,1.77 µM
same,TGI,MOLT-4 leukemia,9.64 µM
same,GI50,NCI-H226 lung,2.92 µM
same,TGI,NCI-H226 lung,21.5 µM
same,GI50,UO-31 renal,2.29 µM
same,TGI,UO-31 renal,9.97 µM
same,GI50,OVCAR-8 ovarian,2.95 µM
same,TGI,OVCAR-8 ovarian,11.8 µM
same,GI50,MCF7 breast,3.06 µM
same,TGI,MCF7 breast,21.8 µM
same,GI50,RPMI-8226 leukemia,1.44 µM
same,TGI,RPMI-8226 leukemia,> 100 µM
same,GI50,NCI-H522 lung,1.76 µM
same,TGI,NCI-H522 lung,11.4 µM
same,GI50,SF-268 CNS,3.52 µM
same,TGI,SF-268 CNS,18.3 µM
same,GI50,K-562 leukemia,1.61 µM
same,TGI,K-562 leukemia,> 100 µM
same,GI50,HT29 colon,3.8 µM
same,TGI,HT29 colon,18 µM
same,GI50,U251 CNS,2.8 µM
same,TGI,U251 CNS,12.6 µM
same,GI50,T-47D breast,2.54 µM
same,TGI,T-47D breast,7.23 µM
same,GI50,PC-3 prostate,2.6 µM
same,TGI,PC-3 prostate,> 100 µM
same,GI50,DU-145 prostate,4.31 µM
same,TGI,DU-145 prostate,19.7 µM
same,GI50,IGROV1 ovarian,3.81 µM
same,TGI,IGROV1 ovarian,18.3 µM
same,GI50,RXF 393 renal,3.23 µM
same,TGI,RXF 393 renal,16.2 µM
same,GI50,UACC-62 melanoma,1.28 µM
same,TGI,UACC-62 melanoma,3.27 µM
same,GI50,NCI-H460 lung,2.07 µM
same,TGI,NCI-H460 lung,6.98 µM
same,GI50,ACHN renal,2.61 µM
same,TGI,ACHN renal,16.9 µM
